In patent US11413278B2, “Compounds and methods for promoting stress resistance” (priority 2015, dated 2022):
Where two headings read alike, the source gives them in different places.

Columns and labels:
[1] = test system: PC12 cells expressing poly(Q)103-Htt-EGFP; assay: Poly(Q) toxicity & viability analysis (cellular model of Huntington's disease); assay type: cell-based, rat; conditions: for M = Huntington's poly-Q toxicity attenuation: score; for K = Huntington's poly-Q toxicity attenuation: summary score
Protocol: Viability assays were performed as described before (Aiken et al., 2004). PC12 cells that stably express the inducible poly(Q)103-Htt-EGFP were grown in culture. […] Cell viability was analyzed 48 hrs later by measuring ATP content with CellTiter-Glo.
Toxic protein aggregation is a key feature of many age-related neurodegenerative diseases, including Alzheimer's and Huntington's disease (Caughey and Lansbury, 2003; Ross and Poirier, 2004). A number of animal models (Phillips et al., 2009) and cell models (Schlachetzki et al., 2013) have been established to study these diseases. For this purpose, PC12 rat pheochromocytoma cells display neuronal features and produce neurotransmitters and have been used extensively to study neuronal phenotypes, including synaptic transmission and neurological diseases. […] In this model, induced expression of poly(Q)103-Htt-EGFP could lead to the formation of aggregates and exert substantial toxicity in cells.

[2] = Summary score for characterization of 38 core set hits; conditions: for D = Triple resistant: 2-point score, multiplex resistance (cadmium, MMS, H2O2); for S = Sum of Negative scores: human; for C = H2O2- & Cd-resistant: score, resistance to both H2O2 and cadmium
Protocol: 38 “core set” small molecules are listed and are assigned a score, based on the result for each individual characterization. From our small molecule screen for H2O2-resistance, we isolated 61 top hits. […] Specifically, a 2-point score was assigned to the most well-known and prominent longevity-related phenotypes, such as multiplex resistance, activation of FOXO3 and/or NRF2, and down-regulation of mTOR. Small molecules were also analyzed for their ability to extend C. elegans' lifespan in 4 to 6 independent trials, and the lifespan score scale is from 0 to 2: 0 for no obvious effects, 1 for lifespan extension observed in 2 trials, 2 for observed in more than 2 trials. Certain molecules appeared to have DNA-damaging effects and/or potential cell-toxicity in cultured human cells, and they receive a negative point.

[3] = test system: C. elegans; assay: C. elegans lifespan assays (liquid and plate); assay type: in vivo, Caenorhabditis elegans; conditions: for ILS at 60 µM / ILS at 66 µM: Caenorhabditis elegans
[4] = test system: LC3A/B puncta; assay: Autophagy induction analysis (LC3A/B puncta immuno-staining); assay type: cell-based, human; conditions: for Exp. 2, normalized change of nuclei numbers (Less cells): 20X objective, lysosomal LAMP co-staining
Protocol: Immuno-staining of LC3A/B was performed, following a standard protocol. Briefly, WI-38 cells were treated with small molecules for 24 hrs, and then processed and incubated with primary antibody (Cell Signaling, rabbit anti-LC3A/B, 1:100) overnight at 4° C. Next day, samples were processed and incubated with fluorophore-conjugated secondary antibody and further incubated with DAPI dye. Images were collected on the INCell Analyzer 2000 (Experiment 1: 10× objective; Experiment 2: 20× objective) and analyzed with the Developer Toolbox. For Experiment 2, lysosomal-associated membrane protein 2 (LAMP2) was also counter-stained to identify the LC3A/B puncta that colocalize with lysosome and the data were analyzed by the MetaXpress software (Molecular Devices, version 5.1). The intensity of total (Exp. 1) or LAMP2-colocalized LC3A/B puncta (Exp. 2) was normalized the total numbers nuclei in the fields.
These assays were performed, following the same procedures to analyze DNA-damage markers. WI-38 cells were incubated with small molecules for 24 hrs, and then processed and incubated with primary antibody (rabbit anti-LC3A/B, 1:100) overnight at 4 C. The next day, samples were processed and incubated with fluorophore-conjugated secondary antibody and further incubated with DAPI dye. Images were collected on an INCell Analyzer 2000 and analyzed with the Developer software. Total LC3A/B puncta intensity was normalized the total numbers of DAPI-positive nuclei.

[5] = 60 μM, in liquid, wild type, with FuDR, 1.0 × 10^9 bacteria/ml, read-out: relative change of mean lifespan vs control, Trial 1
[6] = 60 μM, in liquid, wild type, with FuDR, 2.5 × 10^9 bacteria/ml, read-out: relative change of mean lifespan vs control, Trial 2
[7] = 60 μM, on plate, CF512 temperature-sensitive sterile animals, without FuDR, 2.0 × 10^10 bacteria/ml, read-out: relative change of mean lifespan vs control, Trial 3
[8] = Assay 2(z), at 66 uM, 1.0 × 10^9 bacteria/ml, wild type + FuDR (2012 July), read-out: Lifespan assay in liquid
[9] = Assay 3(aa), at 66 uM, 2.5 × 10^9 bacteria/ml, wild type + FuDR, read-out: Lifespan assay in liquid
[10] = Assay 4(ab), at 66 uM, 2.0 × 10^10 bacteria/ml, CF512 worms, no FuDR, read-out: Lifespan assay on plates
[11] = score scale 0 to 2, 4 to 6 independent trials
[12] = Exp. 1, 10 μM, 10X objective, WI-38 cells

SMILES: CNC(=O)/C(C#N)=C/c1c(Oc2ccc(C(C)(C)C)cc2)nc2ccccn2c1=O [Gr-5D]
- M = Huntington's poly-Q toxicity attenuation [1]: 0
- K = Huntington's poly-Q toxicity attenuation [1]: 0
- D = Triple resistant [2]: 0
- S = Sum of Negative scores [2]: 0
- C = H2O2- & Cd-resistant [2]: 0
- ILS at 60 µM [3, 5]: 29.5%
- ILS at 60 µM [3, 6]: 5.8%
- ILS at 60 µM [3, 7]: -5.3%
- ILS at 66 µM [3, 8]: 29.5%
- ILS at 66 µM [3, 9]: 5.8%
- ILS at 66 µM [3, 10]: -5.3%
- O = Life span- extending scores in worms [3, 11]: 0
- M = Lifespan-extending scores in worms ([3]; summary score): 0
- H = Potential Autophagy Induction ([4]; score): 0
- H = Potential Autophagy Induction ([4]; summary score): 0

SMILES: COc1ccc(/C=C2\SC(=N)N(c3nccs3)C2=O)cc1 [O21]
- M = Huntington's poly-Q toxicity attenuation [1]: 0
- K = Huntington's poly-Q toxicity attenuation [1]: 0
- D = Triple resistant [2]: 0
- S = Sum of Negative scores [2]: 2
- C = H2O2- & Cd-resistant [2]: 0
- ILS at 60 µM [3, 5]: 7.9%
- ILS at 60 µM [3, 6]: -0.5%
- ILS at 60 µM [3, 7]: 12.2%
- ILS at 66 µM [3, 8]: 7.9%
- ILS at 66 µM [3, 9]: -0.5%
- ILS at 66 µM [3, 10]: 12.2%
- O = Life span- extending scores in worms [3, 11]: 0
- M = Lifespan-extending scores in worms ([3]; summary score): 0
- H = Potential Autophagy Induction ([4]; score): 0
- H = Potential Autophagy Induction ([4]; summary score): 0

SMILES: Oc1ccccc1-c1noc(-c2ccccc2O)n1 [O27]
- M = Huntington's poly-Q toxicity attenuation [1]: 0
- K = Huntington's poly-Q toxicity attenuation [1]: 0
- D = Triple resistant [2]: 0
- S = Sum of Negative scores [2]: 2
- C = H2O2- & Cd-resistant [2]: 1
- ILS at 66 µM ([3]; read-out: Lifespan assay on plates): -69.3%
- ILS at 60 µM ([3]; read-out: relative change of mean lifespan vs control, Trial 1): -35.1%
- ILS at 60 µM ([3]; read-out: relative change of mean lifespan vs control, Trial 2): -17.8%
- ILS at 60 µM ([3]; read-out: relative change of mean lifespan vs control, Trial 3): -69.3%
- M = Lifespan-extending scores in worms ([3]; in vivo): 0
- O = Life span- extending scores in worms ([3]; in vivo): 0
- H = Potential Autophagy Induction ([4]; score): 0
- H = Potential Autophagy Induction ([4]; summary score): 0

SMILES: O=C(NCc1cccnc1)/C(=C/c1ccc(-c2ccc(Cl)cc2)o1)S(=O)(=O)c1ccccc1 [Gr-7C]
- Viability of PC12 cells upon induction of toxic poly(Q)103-Htt-EGFP aggregates ([1]; 2.5 μM, 5 μM, 10 μM and 20 μM): consistently increased the viability
- Assay 20: Huntington's poly-Q toxicity attenuation ([1]; 10 uM, YES/NO): YES
- M = Huntington's poly-Q toxicity attenuation [1]: 1
- K = Huntington's poly-Q toxicity attenuation [1]: 1
- D = Triple resistant [2]: 0
- S = Sum of Negative scores [2]: 1
- C = H2O2- & Cd-resistant [2]: 0
- ILS at 60 µM [3, 5]: -29.1%
- ILS at 60 µM [3, 6]: 10.1%
- ILS at 60 µM [3, 7]: -41.6%
- ILS at 66 µM [3, 8]: -29.1%
- ILS at 66 µM [3, 9]: 10.1%
- ILS at 66 µM [3, 10]: -41.6%
- O = Life span- extending scores in worms [3, 11]: 0
- M = Lifespan-extending scores in worms ([3]; summary score): 0
- H = Potential Autophagy Induction ([4]; score): 0
- H = Potential Autophagy Induction ([4]; summary score): 0

SMILES: Cc1cc(C)c(C(=O)/C=C/c2ccccc2F)c(O)n1 [O18]
- M = Huntington's poly-Q toxicity attenuation [1]: 0
- K = Huntington's poly-Q toxicity attenuation [1]: 0
- D = Triple resistant [2]: 0
- S = Sum of Negative scores [2]: 0
- C = H2O2- & Cd-resistant [2]: 0
- ILS at 60 µM [3, 5]: 22.1%
- ILS at 60 µM [3, 6]: 11.8%
- ILS at 60 µM [3, 7]: 3.8%
- ILS at 66 µM [3, 8]: 22.1%
- ILS at 66 µM [3, 9]: 11.8%
- ILS at 66 µM [3, 10]: 3.8%
- O = Life span- extending scores in worms [3, 11]: 1 (1 for lifespan extension observed in 2 trials)
- M = Lifespan-extending scores in worms ([3]; summary score): 1 (1 for lifespan extension observed in 2 trials)
- H = Potential Autophagy Induction ([4]; score): 0
- H = Potential Autophagy Induction ([4]; summary score): 0

SMILES: O=C(Nc1ccc(Cl)c(Cl)c1)c1ccc([N+](=O)[O-])o1 [Gr-1G]
- M = Huntington's poly-Q toxicity attenuation [1]: 0
- K = Huntington's poly-Q toxicity attenuation [1]: 0
- D = Triple resistant [2]: 0
- S = Sum of Negative scores [2]: 1
- C = H2O2- & Cd-resistant [2]: 1
- ILS at 60 µM [3, 5]: 1.3%
- ILS at 60 µM [3, 6]: 10.2%
- ILS at 60 µM ([3]; 60 μM, on plate, CF512 temperature-sensitive sterile animals, without FuDR, 1.0 × 10^11 bacteria/ml, read-out: relative change of mean lifespan vs control, Trial 4): 5.8%
- ILS at 60 µM [3, 7]: 24.7%
- ILS at 66 µM [3, 8]: 1.3%
- ILS at 66 µM [3, 9]: 10.2%
- ILS at 66 µM [3, 10]: 24.7%
- ILS at 66 µM ([3]; Assay 5(ac), at 66 uM, 1.0 × 10^11 bacteria/ml, CF512 worms, no FuDR, read-out: Lifespan assay on plates): 5.8%
- O = Life span- extending scores in worms [3, 11]: 1 (1 for lifespan extension observed in 2 trials)
- M = Lifespan-extending scores in worms ([3]; summary score): 1 (1 for lifespan extension observed in 2 trials)
- Assay 15: Potential autophagy induction by LC3A/B puncta assays ([4]; 10 uM & 20 uM, YES/NO): YES
- Exp. 1, induction of LC3A/B puncta (Up), total intensity normalized by total number of nuclei in the fields [4, 12]: p < 0.001; Up, 2006%,
- Exp. 1, normalized change of nuclei numbers (Less cells) [4, 12]: Less cells, 41%,
- Exp. 2, normalized change of nuclei numbers (Less cells) ([4]; Exp. 2, 10 μM, WI-38 cells): Less cells, 47%,
- Exp. 2, normalized change of nuclei numbers (Less cells) ([4]; Exp. 2, 20 μM, WI-38 cells): Less cells, 67%,
- H = Potential Autophagy Induction ([4]; score): 1
- H = Potential Autophagy Induction ([4]; summary score): 1

SMILES: O=C(NCc1cccnc1)/C(=C\c1ccc(Br)cc1)S(=O)(=O)c1ccccc1 [Gr-7B]
- M = Huntington's poly-Q toxicity attenuation [1]: 0
- K = Huntington's poly-Q toxicity attenuation [1]: 0
- D = Triple resistant [2]: 0
- S = Sum of Negative scores [2]: 1
- C = H2O2- & Cd-resistant [2]: 0
- ILS at 60 µM [3, 5]: 1.3%
- ILS at 60 µM [3, 6]: 3.5%
- ILS at 60 µM [3, 7]: 14.9%
- ILS at 66 µM [3, 8]: 1.3%
- ILS at 66 µM [3, 9]: 3.5%
- ILS at 66 µM [3, 10]: 14.9%
- O = Life span- extending scores in worms [3, 11]: 0
- M = Lifespan-extending scores in worms ([3]; summary score): 0
- H = Potential Autophagy Induction ([4]; score): 0
- H = Potential Autophagy Induction ([4]; summary score): 0
